Data taken from ChEMBL document CHEMBL4014275, “Discovery of benzofuran-3(2H)-one derivatives as novel DRAK2 inhibitors that protect islet β-cells from apoptosis” (Eur J Med Chem, 2017).

What was measured:
[1] = molecular target: Death-associated protein kinase 3 (Homo sapiens, UniProt O43293); assay: Inhibition of human DAPK3
[2] = molecular target: Tyrosine-protein kinase Blk (Homo sapiens, UniProt P51451); assay: Inhibition of human BLK
[3] = molecular target: Glycogen synthase kinase-3 beta (Homo sapiens, UniProt P49841); assay: Inhibition of human GSK3beta
Glycogen synthase kinase-3 beta, sequence (P49841 whole entry): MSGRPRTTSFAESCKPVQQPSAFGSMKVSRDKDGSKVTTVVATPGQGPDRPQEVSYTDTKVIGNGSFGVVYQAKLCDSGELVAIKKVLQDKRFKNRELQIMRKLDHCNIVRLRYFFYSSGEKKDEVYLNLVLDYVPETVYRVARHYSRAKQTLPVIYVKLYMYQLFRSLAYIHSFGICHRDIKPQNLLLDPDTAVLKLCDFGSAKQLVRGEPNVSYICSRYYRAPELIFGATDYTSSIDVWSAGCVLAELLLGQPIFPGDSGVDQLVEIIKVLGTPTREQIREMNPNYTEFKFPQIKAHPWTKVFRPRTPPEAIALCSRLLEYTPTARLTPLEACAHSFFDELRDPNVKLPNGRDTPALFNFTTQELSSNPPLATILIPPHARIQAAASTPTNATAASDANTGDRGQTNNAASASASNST

[4] = molecular target: Tyrosine-protein kinase BTK (Homo sapiens, UniProt Q06187); assay: Inhibition of human BTK
Tyrosine-protein kinase BTK, sequence (Q06187 whole entry): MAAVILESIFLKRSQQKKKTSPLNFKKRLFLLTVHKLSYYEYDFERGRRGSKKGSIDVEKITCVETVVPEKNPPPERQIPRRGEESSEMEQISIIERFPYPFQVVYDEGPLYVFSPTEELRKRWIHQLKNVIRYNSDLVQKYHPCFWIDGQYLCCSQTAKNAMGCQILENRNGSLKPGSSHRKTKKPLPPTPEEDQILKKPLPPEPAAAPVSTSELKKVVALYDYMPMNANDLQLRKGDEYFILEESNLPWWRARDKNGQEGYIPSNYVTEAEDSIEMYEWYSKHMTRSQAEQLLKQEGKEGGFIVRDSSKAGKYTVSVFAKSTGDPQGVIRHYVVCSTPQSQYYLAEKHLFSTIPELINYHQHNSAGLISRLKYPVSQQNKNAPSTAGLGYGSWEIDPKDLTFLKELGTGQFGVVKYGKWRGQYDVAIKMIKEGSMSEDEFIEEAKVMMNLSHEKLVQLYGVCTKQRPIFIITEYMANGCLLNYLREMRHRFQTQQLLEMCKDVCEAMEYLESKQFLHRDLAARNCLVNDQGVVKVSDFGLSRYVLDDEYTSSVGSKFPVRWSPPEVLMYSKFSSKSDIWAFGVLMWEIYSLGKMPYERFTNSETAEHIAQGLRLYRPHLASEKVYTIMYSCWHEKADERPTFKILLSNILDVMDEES

[5] = molecular target: T1, Serine/threonine-protein kinase 17A (Homo sapiens, UniProt Q9UEE5); assay: Inhibition of human DRAK1
T1 sequence (Q9UEE5 whole entry): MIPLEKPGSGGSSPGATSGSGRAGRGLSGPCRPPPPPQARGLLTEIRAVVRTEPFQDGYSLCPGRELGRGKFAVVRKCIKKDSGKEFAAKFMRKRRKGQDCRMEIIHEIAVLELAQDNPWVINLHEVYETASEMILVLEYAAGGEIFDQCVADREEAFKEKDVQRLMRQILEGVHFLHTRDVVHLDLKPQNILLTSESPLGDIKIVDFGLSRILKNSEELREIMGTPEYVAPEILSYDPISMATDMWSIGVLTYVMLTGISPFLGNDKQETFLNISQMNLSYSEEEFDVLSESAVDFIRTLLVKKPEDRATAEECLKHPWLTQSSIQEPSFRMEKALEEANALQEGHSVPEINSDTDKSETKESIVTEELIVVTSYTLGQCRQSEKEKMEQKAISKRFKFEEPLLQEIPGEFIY

Aurora kinase A = molecular target: T2, Aurora kinase A (Homo sapiens, UniProt O14965); assay: Inhibition of human AURORA-A
T2 sequence (O14965 whole entry): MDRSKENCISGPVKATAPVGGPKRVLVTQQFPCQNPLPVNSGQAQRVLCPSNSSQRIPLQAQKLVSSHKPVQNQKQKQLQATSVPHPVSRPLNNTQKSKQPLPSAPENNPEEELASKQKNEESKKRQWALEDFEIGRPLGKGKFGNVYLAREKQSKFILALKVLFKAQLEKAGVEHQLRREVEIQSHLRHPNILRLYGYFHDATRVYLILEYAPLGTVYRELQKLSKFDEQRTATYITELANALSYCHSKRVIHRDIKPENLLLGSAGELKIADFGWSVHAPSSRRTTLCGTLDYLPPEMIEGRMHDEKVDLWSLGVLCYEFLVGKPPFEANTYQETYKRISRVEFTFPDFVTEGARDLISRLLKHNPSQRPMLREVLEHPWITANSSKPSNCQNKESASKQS

[6] = molecular target: Death-associated protein kinase 2 (Homo sapiens, UniProt Q9UIK4); assay: Inhibition of human DAPK2
Death-associated protein kinase 2, sequence (Q9UIK4 whole entry): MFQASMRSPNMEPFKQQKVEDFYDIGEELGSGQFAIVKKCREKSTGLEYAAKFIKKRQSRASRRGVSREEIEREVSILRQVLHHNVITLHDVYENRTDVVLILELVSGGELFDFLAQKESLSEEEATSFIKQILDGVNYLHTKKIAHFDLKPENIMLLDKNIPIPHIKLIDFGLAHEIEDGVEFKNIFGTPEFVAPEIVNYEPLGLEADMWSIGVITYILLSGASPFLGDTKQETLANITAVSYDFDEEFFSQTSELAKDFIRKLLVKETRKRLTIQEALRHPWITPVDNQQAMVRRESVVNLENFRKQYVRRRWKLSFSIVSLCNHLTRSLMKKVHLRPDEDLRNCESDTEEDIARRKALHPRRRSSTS

[7] = molecular target: T3, Serine/threonine-protein kinase 17B (Homo sapiens, UniProt O94768); assay: Inhibition of recombinant GST-tagged DRAK2 (unknown origin) autophosphorylation after 2 hrs by ADP-glo assay
T3 sequence (O94768 whole entry): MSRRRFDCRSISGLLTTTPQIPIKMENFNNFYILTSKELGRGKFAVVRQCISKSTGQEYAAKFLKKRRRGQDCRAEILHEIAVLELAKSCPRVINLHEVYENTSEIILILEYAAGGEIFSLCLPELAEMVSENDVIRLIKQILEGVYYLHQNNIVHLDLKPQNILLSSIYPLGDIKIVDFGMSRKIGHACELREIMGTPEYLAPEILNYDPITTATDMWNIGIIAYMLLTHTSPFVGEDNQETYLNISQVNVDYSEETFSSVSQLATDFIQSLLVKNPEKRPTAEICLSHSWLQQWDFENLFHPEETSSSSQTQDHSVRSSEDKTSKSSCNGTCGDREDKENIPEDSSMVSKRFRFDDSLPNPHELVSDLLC

[8] = molecular target: T4, Inhibitor of nuclear factor kappa-B kinase subunit beta (Homo sapiens, UniProt O14920); assay: Inhibition of human IKKB
T4 sequence (O14920 whole entry): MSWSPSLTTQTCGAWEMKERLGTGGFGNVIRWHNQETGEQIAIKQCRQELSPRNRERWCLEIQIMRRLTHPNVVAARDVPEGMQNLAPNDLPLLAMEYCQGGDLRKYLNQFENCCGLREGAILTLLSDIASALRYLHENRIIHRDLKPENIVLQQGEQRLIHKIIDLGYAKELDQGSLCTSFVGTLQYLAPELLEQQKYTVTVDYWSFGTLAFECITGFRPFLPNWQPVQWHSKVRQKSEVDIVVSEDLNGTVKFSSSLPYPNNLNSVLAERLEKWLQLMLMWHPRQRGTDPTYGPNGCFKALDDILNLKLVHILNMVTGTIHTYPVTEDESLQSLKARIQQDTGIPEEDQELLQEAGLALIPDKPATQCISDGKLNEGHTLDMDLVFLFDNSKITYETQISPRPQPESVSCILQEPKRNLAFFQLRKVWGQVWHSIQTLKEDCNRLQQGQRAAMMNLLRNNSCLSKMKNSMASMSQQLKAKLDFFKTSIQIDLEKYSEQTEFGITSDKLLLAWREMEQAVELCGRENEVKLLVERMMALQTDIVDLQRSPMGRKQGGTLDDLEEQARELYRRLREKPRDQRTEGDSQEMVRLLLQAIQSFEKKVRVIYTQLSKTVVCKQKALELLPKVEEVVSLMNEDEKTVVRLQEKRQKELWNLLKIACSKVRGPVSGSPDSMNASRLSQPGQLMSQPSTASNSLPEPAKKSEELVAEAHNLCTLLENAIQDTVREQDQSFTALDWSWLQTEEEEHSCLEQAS

[9] = molecular target: T1, Serine/threonine-protein kinase 17A; assay: Binding affinity to DRAK1 (unknown origin)
[10] = molecular target: Death-associated protein kinase 1 (Homo sapiens, UniProt P53355); assay: Binding affinity to DAPK1 (unknown origin)
Death-associated protein kinase 1, sequence (P53355 whole entry): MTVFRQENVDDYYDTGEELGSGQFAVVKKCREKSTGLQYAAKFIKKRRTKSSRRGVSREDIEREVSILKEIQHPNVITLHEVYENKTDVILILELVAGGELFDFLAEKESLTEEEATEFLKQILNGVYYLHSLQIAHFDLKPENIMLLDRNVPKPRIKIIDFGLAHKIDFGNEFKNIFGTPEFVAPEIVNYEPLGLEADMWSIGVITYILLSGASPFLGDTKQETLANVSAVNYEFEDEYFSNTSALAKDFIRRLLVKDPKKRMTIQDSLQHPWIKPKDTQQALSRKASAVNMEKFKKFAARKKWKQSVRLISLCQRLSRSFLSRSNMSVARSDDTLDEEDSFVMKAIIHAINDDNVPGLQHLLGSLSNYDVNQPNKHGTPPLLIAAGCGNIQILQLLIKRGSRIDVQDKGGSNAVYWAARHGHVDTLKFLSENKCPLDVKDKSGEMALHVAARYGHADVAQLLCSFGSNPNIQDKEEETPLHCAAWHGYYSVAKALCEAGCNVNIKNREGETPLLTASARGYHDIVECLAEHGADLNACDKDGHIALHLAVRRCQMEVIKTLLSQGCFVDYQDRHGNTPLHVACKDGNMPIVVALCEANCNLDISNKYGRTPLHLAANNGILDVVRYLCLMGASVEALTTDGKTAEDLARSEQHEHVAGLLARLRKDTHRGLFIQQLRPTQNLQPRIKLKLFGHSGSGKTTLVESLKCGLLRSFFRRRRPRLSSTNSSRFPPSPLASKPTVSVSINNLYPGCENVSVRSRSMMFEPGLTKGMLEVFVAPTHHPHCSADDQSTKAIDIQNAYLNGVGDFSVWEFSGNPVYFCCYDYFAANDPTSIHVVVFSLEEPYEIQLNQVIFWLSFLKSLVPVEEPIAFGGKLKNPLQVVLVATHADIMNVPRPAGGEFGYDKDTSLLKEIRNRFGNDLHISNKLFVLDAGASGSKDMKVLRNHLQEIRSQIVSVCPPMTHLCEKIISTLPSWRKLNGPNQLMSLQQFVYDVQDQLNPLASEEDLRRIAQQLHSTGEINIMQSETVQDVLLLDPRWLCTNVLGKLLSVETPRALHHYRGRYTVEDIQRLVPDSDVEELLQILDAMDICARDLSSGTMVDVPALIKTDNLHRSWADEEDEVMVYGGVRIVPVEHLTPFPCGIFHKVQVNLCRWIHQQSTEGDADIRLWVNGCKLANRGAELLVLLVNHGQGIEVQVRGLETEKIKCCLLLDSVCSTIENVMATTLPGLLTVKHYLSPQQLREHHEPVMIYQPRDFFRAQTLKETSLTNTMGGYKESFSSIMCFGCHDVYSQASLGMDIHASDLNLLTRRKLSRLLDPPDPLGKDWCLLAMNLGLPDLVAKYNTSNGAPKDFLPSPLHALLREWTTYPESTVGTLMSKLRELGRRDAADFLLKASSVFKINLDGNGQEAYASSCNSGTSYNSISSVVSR

[11] = molecular target: T3, Serine/threonine-protein kinase 17B; assay: Inhibition of DRAK2 (unknown origin)

Death-associated protein kinase 3, sequence (O43293 whole entry): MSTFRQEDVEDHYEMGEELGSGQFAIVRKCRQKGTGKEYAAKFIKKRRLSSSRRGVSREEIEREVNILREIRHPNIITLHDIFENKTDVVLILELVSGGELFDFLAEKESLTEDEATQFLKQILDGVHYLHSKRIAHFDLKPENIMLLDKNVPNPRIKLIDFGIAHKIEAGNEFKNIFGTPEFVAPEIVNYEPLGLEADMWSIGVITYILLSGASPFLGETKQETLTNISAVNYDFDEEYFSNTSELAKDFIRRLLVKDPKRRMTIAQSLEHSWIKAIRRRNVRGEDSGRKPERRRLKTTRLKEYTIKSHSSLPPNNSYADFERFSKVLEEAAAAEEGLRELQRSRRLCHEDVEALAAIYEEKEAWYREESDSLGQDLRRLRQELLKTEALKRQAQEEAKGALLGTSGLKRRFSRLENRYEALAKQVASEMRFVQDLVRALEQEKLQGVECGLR
Tyrosine-protein kinase Blk, sequence (P51451 whole entry): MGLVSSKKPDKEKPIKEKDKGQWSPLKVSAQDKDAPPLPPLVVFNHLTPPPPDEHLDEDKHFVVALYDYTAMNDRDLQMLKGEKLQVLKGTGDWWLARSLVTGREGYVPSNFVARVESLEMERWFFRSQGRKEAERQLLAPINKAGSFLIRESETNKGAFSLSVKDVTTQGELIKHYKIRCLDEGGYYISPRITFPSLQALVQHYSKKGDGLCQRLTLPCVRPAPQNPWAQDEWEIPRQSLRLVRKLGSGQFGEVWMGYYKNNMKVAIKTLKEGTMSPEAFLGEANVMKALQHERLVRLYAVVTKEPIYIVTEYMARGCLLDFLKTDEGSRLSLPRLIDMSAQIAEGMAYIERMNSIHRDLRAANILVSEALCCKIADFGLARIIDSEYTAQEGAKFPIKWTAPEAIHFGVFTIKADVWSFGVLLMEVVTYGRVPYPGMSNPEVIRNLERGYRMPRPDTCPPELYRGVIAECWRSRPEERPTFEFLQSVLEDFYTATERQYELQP

IC50 [2] [µM] | IC50 [3] [µM] | IC50 [4] [µM] | IC50 [5] [µM] | IC50 (Aurora kinase A) [µM] | IC50 [7] [µM] | IC50 [8] [µM] | Kd [9] [µM] | IC50 [11] [µM] | SMILES | IC50 [1] [µM] | IC50 [6] [µM] | Kd [10] [µM]
5.26 | 5.01 | 5 | 1.41 | 9.92 | 0.33 | 6.23 |  |  | CCOc1cc(/C=C2\Oc3ccc(OC)cc3C2=O)ccc1O | 18.9 | 22.7 | 
 |  |  |  |  |  |  | 0.099 | 0.029 | Nc1c(-c2n[nH]c(=S)o2)sc2ncc(-c3ccsc3)cc12 |  |  | 0.054
